Key:
HT29 (Colon) = experiment: cell survival / MTT combination cytotoxicity; format: cell-based, human; settings: HT29; IC50 cytotoxic agent alone / IC50 combination; Compound 1 at 8x EC50 (360 nM)
Colo205 (Colon) = experiment: cell survival / MTT combination cytotoxicity; format: cell-based, human; settings: Colo205; IC50 cytotoxic agent alone / IC50 combination; Compound 1 at 8x EC50 (360 nM)
PC-3 (Prostate) = experiment: cell survival / MTT combination cytotoxicity; format: cell-based, human; settings: PC-3; IC50 cytotoxic agent alone / IC50 combination; Compound 1 at 8x EC50 (360 nM)
MDA-MB-231 (Breast) = experiment: cell survival / MTT combination cytotoxicity; format: cell-based, human; settings: IC50 cytotoxic agent alone / IC50 combination, Compound 1 at 8x EC50 (360 nM)
K562 (Leukemia) = experiment: cell survival / MTT combination cytotoxicity; format: cell-based, human; settings: IC50 cytotoxic agent alone / IC50 combination, Compound 1 at 4x EC50 (180 nM)
[1] = system: Colo205 human colon carcinoma xenografts; experiment: in vivo chemopotentiation, Colo205 xenograft; design: species or system mice
Description: (§1) Experiments 1 to 39 were conducted in mice xenografts. Experiments 40-42 were conducted in rat xenografts. Specifically, irinotecan combination studies were conducted in HT29 and Colo205. Gemcitabine combination studies were conducted in Colo205. Docetaxel combination studies were conducted in Colo205.
(§2) Gemcitabine and irinotecan are DNA directed cytotoxics known to induce checkpoint activation and subsequent S/G2M-phase arrest. […] Docetaxel is an antimitotics where recent discoveries describe a novel function for CHK1 in the mitotic checkpoint.

[2] = system: HT29 human colon carcinoma xenografts; experiment: in vivo chemopotentiation, HT29 xenograft (mice)
Description: as §1, §2

[3] = system: HT29 human colon carcinoma xenografts; experiment: in vivo chemopotentiation, HT29 xenograft (rat)
Description: as §1, §2

[4] = Exp 18, docetaxel 30 mg/kg, Compound 1 30 mg/kg as printed, IP Q1w×3
[5] = Exp 19, docetaxel 30 mg/kg + Compound 1 7.5 mg/kg, IP simultaneously Q1w×3
[6] = Exp 20, docetaxel 30 mg/kg + Compound 1 15 mg/kg, IP simultaneously Q1w×3
[7] = Exp 21, docetaxel 30 mg/kg + Compound 1 30 mg/kg, IP simultaneously Q1w×3
[8] = Exp 22, docetaxel 15 mg/kg, Compound 1 15 mg/kg as printed, IP Q1w×3
[9] = Exp 23, docetaxel 15 mg/kg + Compound 1 15 mg/kg, IP simultaneously Q1w×3
[10] = Exp 24, docetaxel 15 mg/kg + Compound 1 30 mg/kg, IP simultaneously Q1w×3
[11] = Exp 25, docetaxel 15 mg/kg Q1w×3 + Compound 1 60 mg/kg, IP simultaneously, Compound 1 two cycles, total 120 mg/kg
[12] = Exp 8, irinotecan 10 mg/kg IP Q3d×4, Compound 1 0 mg/kg
[13] = Exp 9, irinotecan 10 mg/kg IP Q3d×4 + Compound 1 4 mg/kg IP Q3d×4 24 h after
[14] = Exp 10, irinotecan 10 mg/kg IP Q3d×4 + Compound 1 20 mg/kg IP Q3d×4 24 h after
[15] = Exp 11, irinotecan 10 mg/kg IP Q3d×4 + Compound 1 40 mg/kg IP Q3d×4 24 h after
[16] = Exp 12, irinotecan 10 mg/kg IP Q3d×4, Compound 1 0 mg/kg
[17] = Exp 13, irinotecan 30 mg/kg IP Q3d×4, Compound 1 0 mg/kg
[18] = Exp 14, irinotecan 60 mg/kg IP Q3d×4, Compound 1 0 mg/kg
[19] = Exp 15, irinotecan 10 mg/kg IP Q3d×4 + Compound 1 40 mg/kg IP Q3d×4 24 h after
[20] = Exp 16, irinotecan 30 mg/kg IP Q3d×4 + Compound 1 40 mg/kg IP Q3d×4 24 h after
[21] = Exp 17, irinotecan 60 mg/kg IP Q3d×4 + Compound 1 40 mg/kg IP Q3d×4 24 h after
[22] = Exp 26, irinotecan 10 mg/kg IP Q3d×4, Compound 1 0 mg/kg
[23] = Exp 27, irinotecan 10 mg/kg IP Q3d×4 + Compound 1 4 mg/kg IP Q3d×4 24 h after
[24] = Exp 28, irinotecan 10 mg/kg IP Q3d×4 + Compound 1 20 mg/kg IP Q3d×4 24 h after
[25] = Exp 29, irinotecan 10 mg/kg IP Q3d×4 + Compound 1 40 mg/kg IP Q3d×4 24 h after
[26] = Exp 30, irinotecan 10 mg/kg IP Q3d×4, Compound 1 0 mg/kg
[27] = Exp 31, irinotecan 30 mg/kg IP Q3d×4, Compound 1 0 mg/kg
[28] = Exp 32, irinotecan 60 mg/kg IP Q3d×4, Compound 1 0 mg/kg
[29] = Exp 33, irinotecan 10 mg/kg IP Q3d×4 + Compound 1 40 mg/kg IP Q3d×4 24 h after
[30] = Exp 34, irinotecan 30 mg/kg IP Q3d×4 + Compound 1 40 mg/kg IP Q3d×4 24 h after
[31] = Exp 35, irinotecan 60 mg/kg IP Q3d×4 + Compound 1 40 mg/kg IP Q3d×4 24 h after
[32] = Exp 36, irinotecan 50 mg/kg IP Q1w×3, Compound 1 0 mg/kg
[33] = Exp 37, irinotecan 100 mg/kg IP Q1w×3, Compound 1 0 mg/kg
[34] = Exp 38, irinotecan 50 mg/kg IP Q1w×3 + Compound 1 40 mg/kg IP twice weekly, 24 and 72 h after, three weeks
[35] = Exp 39, irinotecan 100 mg/kg IP Q1w×3 + Compound 1 40 mg/kg IP twice weekly, 24 and 72 h after, three weeks
[36] = Exp 40, irinotecan 100 mg/kg IP Q3d×4, Compound 1 0 mg/kg
[37] = Exp 41, irinotecan 100 mg/kg IP Q3d×4 + Compound 1 25 mg/kg two hour IV infusion Q3d×4 24 h after
[38] = Exp 42, irinotecan 100 mg/kg IP Q3d×4 + Compound 1 100 mg/kg two hour IV infusion Q3d×4 24 h after

N.N.O=C([O-])C1(C(=O)[O-])CCC1.[Pt+2] [Carboplatin]
PF50 (Potentiation Factor50) (HT29 (Colon)): 3 | PF50 (Potentiation Factor50) (Colo205 (Colon)): 5.4 | PF50 (Potentiation Factor50) (PC-3 (Prostate)): 3.1 | PF50 (Potentiation Factor50) (MDA-MB-231 (Breast)): 2.55 | PF50 (Potentiation Factor50) (K562 (Leukemia)): 1.9

CC(=O)O[C@@]12CO[C@@H]1C[C@H](O)[C@@]1(C)C(=O)[C@H](O)C3=C(C)[C@@H](OC(=O)[C@H](O)[C@@H](NC(=O)OC(C)(C)C)c4ccccc4)C[C@@](O)([C@@H](OC(=O)c4ccccc4)[C@H]21)C3(C)C [Docetaxel]
% TGI [1, 4]: 85% | Growth delay [1, 4]: 54 days | % TGI [1, 5]: 90% | % poten TGI [1, 5]: 35% | Growth delay [1, 5]: 53 days | % TGI [1, 6]: 93% | % TTP [1, 6]: 36% | % poten TGI [1, 6]: 57% | Growth delay [1, 6]: 68 days | % TGI [1, 7]: 103% | % TTP [1, 7]: 50% | % poten TGI [1, 7]: 122% | Growth delay [1, 7]: 74 days | % TGI [1, 8]: 49% | Growth delay [1, 8]: 4.75 days | % TGI [1, 9]: 65% | % TTP [1, 9]: 72% | % poten TGI [1, 9]: 31% | Growth delay [1, 9]: 19.75 days | % TGI [1, 10]: 79% | % TTP [1, 10]: 177% | % poten TGI [1, 10]: 59% | Growth delay [1, 10]: 41.5 days | % TGI [1, 11]: 99% | % TTP [1, 11]: 145% | % poten TGI [1, 11]: 99% | Growth delay [1, 11]: 35 days

COc1cccc2c1C(=O)c1c(O)c3c(c(O)c1C2=O)C[C@@](O)(C(=O)CO)C[C@@H]3O[C@H]1C[C@H](N)[C@H](O)[C@H](C)O1 [Doxorubicin]
PF50 (Potentiation Factor50) (HT29 (Colon)): 2.2 | PF50 (Potentiation Factor50) (Colo205 (Colon)): 1.1 | PF50 (Potentiation Factor50) (PC-3 (Prostate)): 1.5 | PF50 (Potentiation Factor50) (MDA-MB-231 (Breast)): 2.25 | PF50 (Potentiation Factor50) (K562 (Leukemia)): 1.1

CCc1c2c(nc3ccc(OC(=O)N4CCC(N5CCCCC5)CC4)cc13)-c1cc3c(c(=O)n1C2)COC(=O)[C@]3(O)CC [Irinotecan]
% TGI [1, 12]: 35% | Growth delay [1, 12]: 18 days | % TGI [1, 13]: 50% | % poten TGI [1, 13]: 22% | Growth delay [1, 13]: 18 days | % TGI [1, 14]: 69% | % TTP [1, 14]: 33% | % poten TGI [1, 14]: 52% | Growth delay [1, 14]: 24 days | % TGI [1, 15]: 59% | % TTP [1, 15]: 12% | % poten TGI [1, 15]: 37% | Growth delay [1, 15]: 20.5 days | % TGI [1, 16]: 35% | Growth delay [1, 16]: 18 days | % TGI [1, 17]: 65% | Growth delay [1, 17]: 22 days | % TGI [1, 18]: 83% | Growth delay [1, 18]: 48 days | % TGI [1, 19]: 59% | % TTP [1, 19]: 12% | % poten TGI [1, 19]: 37% | Growth delay [1, 19]: 20.5 days | % TGI [1, 20]: 73% | % TTP [1, 20]: 54% | % poten TGI [1, 20]: 24% | Growth delay [1, 20]: 34 days | % TGI [1, 21]: 91% | % TTP [1, 21]: 8% | % poten TGI [1, 21]: 47% | Growth delay [1, 21]: 52 days | % TGI [2, 22]: 26% | Growth delay [2, 22]: 1.75 days | % TGI [2, 23]: 26% | % TTP [2, 23]: 29% | Growth delay [2, 23]: 7.5 days | % TGI [2, 24]: 61% | % TTP [2, 24]: 39% | % poten TGI [2, 24]: 47% | Growth delay [2, 24]: 9.5 days | % TGI [2, 25]: 57% | % TTP [2, 25]: 44% | % poten TGI [2, 25]: 42% | Growth delay [2, 25]: 10.5 days | % TGI [2, 26]: 8% | Growth delay [2, 26]: 2.75 days | % TGI [2, 27]: 13% | Growth delay [2, 27]: 4 days | % TGI [2, 28]: 49% | Growth delay [2, 28]: 12.5 days | % TGI [2, 29]: 22% | % TTP [2, 29]: 0% | % poten TGI [2, 29]: 15% | Growth delay [2, 29]: 1.0 days | % TGI [2, 30]: 66% | % TTP [2, 30]: 61% | % poten TGI [2, 30]: 60% | Growth delay [2, 30]: 17.5 days | % TGI [2, 31]: 77% | % TTP [2, 31]: 28% | % poten TGI [2, 31]: 55% | Growth delay [2, 31]: 21 days | % TGI [2, 32]: 65% | Growth delay [2, 32]: 7.5 days | % TGI [2, 33]: 70% | Growth delay [2, 33]: 11.5 days | % TGI [2, 34]: 77% | % TTP [2, 34]: 24% | % poten TGI [2, 34]: 36% | Growth delay [2, 34]: 14 days | % TGI [2, 35]: 89% | % TTP [2, 35]: 49% | % poten TGI [2, 35]: 62% | Growth delay [2, 35]: 21 days | % TGI [3, 36]: 45% | Growth delay [3, 36]: 4.0 days | % TGI [3, 37]: 58% | % poten TGI [3, 37]: 23% | Growth delay [3, 37]: 4.0 days | % TGI [3, 38]: 77% | % TTP [3, 38]: 24% | % poten TGI [3, 38]: 58% | Growth delay [3, 38]: 8.0 days

CO[C@@]12[C@H](COC(N)=O)C3=C(C(=O)C(C)=C(N)C3=O)N1C[C@@H]1N[C@@H]12 [Mytomicin C]
PF50 (Potentiation Factor50) (HT29 (Colon)): 3.7 | PF50 (Potentiation Factor50) (Colo205 (Colon)): 5.3 | PF50 (Potentiation Factor50) (MDA-MB-231 (Breast)): 1.2
